The source of these data is ChEMBL document CHEMBL1201862, “PubChem BioAssay data set” (2004).

Assay [1] addresses T1, Heat shock factor protein 1 (Mus musculus, UniProt P38532).
T1 sequence (P38532 whole entry): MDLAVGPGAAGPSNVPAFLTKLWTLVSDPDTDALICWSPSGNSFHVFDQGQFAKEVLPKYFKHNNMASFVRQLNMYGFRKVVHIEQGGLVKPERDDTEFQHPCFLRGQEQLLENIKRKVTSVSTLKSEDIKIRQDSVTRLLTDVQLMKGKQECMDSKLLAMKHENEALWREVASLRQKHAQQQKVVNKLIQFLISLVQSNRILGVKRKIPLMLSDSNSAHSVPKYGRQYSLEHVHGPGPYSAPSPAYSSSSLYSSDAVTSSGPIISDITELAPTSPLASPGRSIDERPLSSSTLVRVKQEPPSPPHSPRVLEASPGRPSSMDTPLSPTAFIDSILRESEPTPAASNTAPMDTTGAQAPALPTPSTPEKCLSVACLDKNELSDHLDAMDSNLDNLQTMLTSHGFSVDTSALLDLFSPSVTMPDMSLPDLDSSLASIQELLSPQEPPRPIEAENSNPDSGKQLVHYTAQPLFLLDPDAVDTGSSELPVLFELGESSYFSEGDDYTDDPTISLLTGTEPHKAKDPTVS
The assay is described as follows: decrease of HSF1-responsive luciferase luminescence – cell-based, NIH3T3, dose retest, confirmation (AID 2382).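 Further: NIH3T3 fibroblasts with HSF1-driven luciferase reporter stressed by proteasome inhibitor MG132; luminescence from HSF1-driven luciferase expression after 8 hours of MG132 stress.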 The assay is classed as functional.

In assay [2] the target is Cytochrome P450 2C9 (Homo sapiens, UniProt P11712).
Sequence of Cytochrome P450 2C9 (P11712 whole entry): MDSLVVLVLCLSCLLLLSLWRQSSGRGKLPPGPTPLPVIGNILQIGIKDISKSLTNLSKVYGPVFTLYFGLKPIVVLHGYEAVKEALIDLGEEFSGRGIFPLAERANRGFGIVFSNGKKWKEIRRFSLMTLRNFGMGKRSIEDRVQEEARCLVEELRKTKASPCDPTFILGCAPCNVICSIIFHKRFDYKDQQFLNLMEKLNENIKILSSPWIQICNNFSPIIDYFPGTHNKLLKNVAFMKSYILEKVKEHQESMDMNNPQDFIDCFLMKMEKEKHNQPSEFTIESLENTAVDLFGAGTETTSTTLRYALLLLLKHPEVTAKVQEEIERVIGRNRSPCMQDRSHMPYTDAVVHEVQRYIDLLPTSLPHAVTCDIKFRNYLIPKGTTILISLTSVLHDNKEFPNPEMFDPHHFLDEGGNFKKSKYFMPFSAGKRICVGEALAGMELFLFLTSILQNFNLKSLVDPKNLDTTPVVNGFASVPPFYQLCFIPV
Assay [3] addresses T2, Rac GTPase-activating protein 1 (Homo sapiens, UniProt Q9H0H5).
T2 sequence (Q9H0H5 whole entry): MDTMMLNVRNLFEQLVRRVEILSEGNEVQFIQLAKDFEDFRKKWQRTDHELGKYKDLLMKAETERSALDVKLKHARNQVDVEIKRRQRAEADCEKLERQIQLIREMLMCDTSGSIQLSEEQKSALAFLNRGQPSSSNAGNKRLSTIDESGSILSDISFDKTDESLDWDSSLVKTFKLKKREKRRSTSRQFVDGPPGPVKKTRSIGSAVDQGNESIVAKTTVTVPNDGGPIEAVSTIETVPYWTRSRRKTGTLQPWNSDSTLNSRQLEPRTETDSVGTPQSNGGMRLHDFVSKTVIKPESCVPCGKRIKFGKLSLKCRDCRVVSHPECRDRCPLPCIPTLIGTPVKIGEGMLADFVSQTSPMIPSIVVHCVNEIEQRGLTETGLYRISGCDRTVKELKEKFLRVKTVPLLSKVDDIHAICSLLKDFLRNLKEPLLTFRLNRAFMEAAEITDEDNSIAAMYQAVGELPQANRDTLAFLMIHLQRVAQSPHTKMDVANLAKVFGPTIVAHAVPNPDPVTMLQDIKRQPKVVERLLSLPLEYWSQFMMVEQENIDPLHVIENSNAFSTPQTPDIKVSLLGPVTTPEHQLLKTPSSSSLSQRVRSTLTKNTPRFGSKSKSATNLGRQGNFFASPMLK
The assay can be described thus: blockers of MgcRacGAP-driven Rac1 GTP hydrolysis – biochemical, ADP Hunter fluorescence, primary and confirmatory, confirmation (AID 624330). The assay is classed as functional.

Assay [4] is described as follows: Trypanosoma cruzi growth suppression in host cells – NIH3T3 host cells, beta-gal luminescence, confirmation (AID 2044).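 Further: intracellular parasites grown in NIH/3T3 mouse fibroblasts as host cells; luminescent beta-galactosidase reporter signal from transgenic T. cruzi replicating inside host cells; inhibitors lower the luminescence signal.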 The assay is classed as functional, cell-based.
A short description of assay [5]: NIH3T3 cell viability loss – ATP luminescence, mouse fibroblasts, counter-screen, dose response (AID 2010).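 Further: cells exposed to compound for about 90 hours before reading.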 The assay is classed as functional, cell-based.
For assay [6], the system named is Streptococcus sp. 'group A'. The assay can be described thus: Streptococcus pyogenes SK(-)GAS viability under kanamycin – luminescence, BacTiterGlo, confirmation, counter-screen for streptokinase expression inhibitor project, dose response (AID 1900). The assay is classed as functional, organism-based. (Counterscreens check selectivity or assay interference.)
For assay [7], the target named is T3, Streptokinase A (Streptococcus pyogenes serotype M1, UniProt P10520).
T3 sequence (P10520 whole entry): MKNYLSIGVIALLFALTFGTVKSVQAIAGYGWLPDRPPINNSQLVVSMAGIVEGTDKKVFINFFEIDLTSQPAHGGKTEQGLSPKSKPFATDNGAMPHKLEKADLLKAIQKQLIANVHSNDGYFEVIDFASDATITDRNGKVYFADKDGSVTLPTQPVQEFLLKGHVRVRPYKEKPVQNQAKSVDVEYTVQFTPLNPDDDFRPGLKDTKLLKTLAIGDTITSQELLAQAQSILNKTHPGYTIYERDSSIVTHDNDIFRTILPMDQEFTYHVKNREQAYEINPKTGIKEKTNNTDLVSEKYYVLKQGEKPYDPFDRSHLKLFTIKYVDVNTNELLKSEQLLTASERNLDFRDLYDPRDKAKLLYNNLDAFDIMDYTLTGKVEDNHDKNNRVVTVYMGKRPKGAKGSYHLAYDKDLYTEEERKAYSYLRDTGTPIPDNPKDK
The assay is described as follows: viability-normalized secreted streptokinase activity reduction – plasminogen activation absorbance, OD405, dose response (AID 1914).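 Further: secreted streptokinase activity via plasminogen activation per viability signal from cell pellet.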 The assay is classed as functional, Streptococcus pyogenes M1 GAS.

For assay [8], the system named is Streptococcus. The assay is described as follows: GAS UMAA2166 growth inhibition – luminescence, BacTiterGlo, counter-screen for streptokinase expression inhibitor project, dose response (AID 1915).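 Further: potency for reduction of bacterial viability or growth.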 The assay is classed as functional, organism-based.

Usually EC50 stands for the concentration at which the effect is half-maximal. The AC50 is the midpoint of the concentration-response curve, whichever way the signal moves. What is called IC50 is the concentration that inhibits the measured activity by half.

Active and inactive are the calls of the source. For most assays here, no stated cut-off is given here; in the data, actives have a measured EC50 and inactives only a lower limit.

On to `Cc1cc(OCC(=O)Nc2sc3c(c2C#N)CC(C)(C)NC3(C)C)c(C(C)C)cc1Cl`, for which the EC50 in assay [1] is recorded as > 195 µM (not active).

Regarding `O=C(c1cccc(F)c1)N1CCC[C@@]2(CCN(c3cccc(-c4ccccc4)c3)C2)C1`, the AC50 in assay [2] was 20 µM (inconclusive).

On to `O=C(Nc1ccc2[nH]c(-c3cccnc3)nc2c1)c1ccccc1F`, for which the EC50 in assay [1] was > 195 µM (not active).

As for `Nc1nc(CSc2ncn(-c3ccccc3)n2)cs1`, the EC50 in assay [1] is reported as > 195 µM (not active).

With `Cc1ccc(CN2CCN(Cc3ccco3)CC2)cc1`, the half-inhibitory concentration (IC50) in assay [3] is 72.7 µM (active).

For the compound `CC1CC(C)CN(c2ccc(C(=O)NCc3ccc4c(c3)OCO4)cc2[N+](=O)[O-])C1` (centres undefined), the EC50 in assay [4] was 1.1 µM (active); in assay [5], > 60 µM (not active).

Consider `O=C1c2cccc3c(Nc4ccccc4Cl)c([N+](=O)[O-])cc(c23)C(=O)N1CCO`, for which the figures for the EC50 in assay [4] and in assay [5] were 0.519 µM (active) and > 60 µM (not active), respectively.

In the case of `CC(C)Cc1ccc(CN2CCCC(NC(=O)c3cnc4ccccn4c3=O)C2)cc1` (centres undefined), the EC50 was 0.131 µM (active) in assay [4] and 26.7 µM (active) in assay [5].

With `COC(=O)CCNC(=O)c1ccc2nc(Cc3ccc(OC)cc3)oc2c1`, the EC50 in assay [1] is reported as > 195 µM (not active).

Turning to `Cc1ccc(/C=C/C2=NN(Cc3ccc(Cl)c(Cl)c3)C(=O)CC2)cc1`, the EC50 in assay [6] is 17.2 µM (active); in assay [7] it was 24.3 µM (active); in assay [8], 50.6 µM (active).

For `Cc1cc(C)c(/N=C2\SCC(=O)N2Cc2ccco2)c(C)c1`, the EC50 in assay [1] was > 195 µM (not active).

`NNC(=O)c1nn(-c2ccc(Cl)cc2)cc1O`: the EC50 in assay [1] was 27 µM (active).

On to `CCCCNC(=O)C(=O)N/N=C/c1ccc(C(=O)OC)cc1`, for which, in assay [1], the EC50 was > 195 µM (not active).

Regarding `Cc1ccc(NC(=S)N=Nc2c(O)[nH]c3ccccc23)cc1`, the EC50 in assay [4] was 2.17 µM (active); in assay [6] it was 1.22 µM (active); in assay [7] it was > 150 µM (not active); in assay [8], 6.61 µM (active); in assay [5], 4.31 µM (active).

On to `COc1ccc(C2C(Oc3ccccc3)C(=O)N2c2cc(C)ccc2C)cc1OC` (centres undefined), for which the half-maximal effective concentration (EC50) in assay [4] was 2.24 µM (active); in assay [5], > 60 µM (not active).

`COCCCNCCOc1ccc(C(C)(C)c2ccccc2)cc1`: the EC50 in assay [4] was 0.611 µM (active); in assay [5], 7.83 µM (active).

With `COc1ccc(C(=O)NCC(=O)OCCCOC(=O)CNC(=O)c2ccc(OC)c(OC)c2)cc1OC`, the EC50 in assay [6], in assay [7] and in assay [8] was > 150 µM (not active) throughout.

For `Cc1ccsc1/C=C(\C(=O)c1ccc(OC(C)C)cc1)c1nc2ccccc2o1`, the EC50 is 1.69 µM (active) in assay [4] and > 60 µM (inconclusive) in assay [5].

Turning to `COc1ccc(Oc2nc(-c3ccccn3)ncc2OC)cc1`, the EC50 in assay [6], in assay [7] and in assay [8] was > 150 µM (not active) throughout.

Take `COc1cc(/C=N\NC(=O)c2ccc(Cn3cc(Br)c([N+](=O)[O-])n3)o2)cc(OC)c1O`: the EC50 in assay [6] was 2.67 µM (active); in assay [8] it was 4.9 µM (active).

With `COc1cc(/C=C/CN2CCC(Oc3ccc(C(=O)N4CCCC4)cc3)CC2)ccc1O`, the IC50 in assay [3] is 81.2 µM (active).

Consider `Cc1ccccc1CN1CCN(C(=O)CC(C)C)CC1`, for which the EC50 in assay [1] is > 195 µM (not active).

As to `COC(=O)[C@@]12CCCCN1[C@H](c1ccc(-c3cccc(Cl)c3)c(OC)c1)[C@@H]1C(=O)N(C)C(=O)[C@@H]12`, the EC50 in assay [4] was 2.48 µM (active); in assay [5], > 60 µM (not active).

On to `CCOC(=O)c1ccc(Cl)c(NC(=O)c2cccnc2)c1`, for which the EC50 in assay [1] was 30.8 µM (active).

In the case of `CCc1ccc(OCC(=O)NC(N=C(S)Nc2ccccc2C)C(Cl)(Cl)Cl)cc1` (centres undefined), the concentration for a half-maximal effect (EC50) was 3.62 µM (active) in assay [4] and > 60 µM (not active) in assay [5].

Take `COc1cccc(CN2CCC(n3nccc3NC(=O)CCCc3ccccc3)CC2)c1O`: the EC50 in assay [1] is recorded as > 195 µM (not active).

On to `CC(OC(=O)c1ccc(NC(=O)CC#N)cc1)C(=O)NC(=O)NC1CCCCC1` (centres undefined), for which the EC50 in assay [6] is 57.5 µM (active); in assay [7], > 150 µM (not active); in assay [8], > 150 µM (not active).

`c1ccn2c(SCc3ccc4c(c3)OCO4)nnc2c1`: in assay [1], the EC50 is listed as > 195 µM (not active).

As for `COc1ccc(S(=O)(=O)N2CCN=C2SCc2cccc(C)c2)cc1`, the EC50 in assay [6] is > 150 µM (not active); in assay [7] it was 46.6 µM (inconclusive); in assay [8] it was > 150 µM (not active).

As for `C[C@H]1COc2c(C3(N)CC3)c(F)cc3c(=O)c(C(=O)O)cn1c23` [PAZUFLOXACIN], the EC50 in assay [6] was 7.22 µM (active); in assay [8], 6.74 µM (active).

On to `Clc1cc(Cl)c(OCCCCn2cncn2)c(Cl)c1`, for which, in assay [3], the IC50 was 156 µM (active).

For the compound `COc1ccc(NC2CCCN(C(=O)c3cccc(N(C)C)c3)C2)cc1` (centres undefined), the IC50 in assay [3] was 84.9 µM (active).

On to `CCOC(=O)N1CCC(NC(=O)CN2C(=O)CSc3nc(C)cc(C)c32)CC1`, for which the EC50 in assay [1] is recorded as > 195 µM (not active).

With `O=C(Nc1ccccc1)NC1CC2CCC(C1)N2` (centres undefined), in assay [1], the EC50 is given as > 195 µM (not active).

`O=C(C1CCCN(S(=O)(=O)Cc2ccccc2)C1)N1CCc2ccccc21` (centres undefined): in assay [1], the EC50 is listed as > 195 µM (not active).

Regarding `COc1ccc(NC(=O)C(NC(=O)CNC(C)=O)c2ccc(C)cc2)cc1` (centres undefined), in assay [1], the EC50 is given as > 195 µM (not active).

As for `Cc1ccc(CNC(=O)CSc2nc3c(sc4ccccc43)c(=O)n2CCCN2CCCC2)cc1`, the EC50 was 1.5 µM (active) in assay [4] and 32.5 µM (active) in assay [5].

In the case of `CCOC(=O)C1=C(Nc2ccccc2)CC(C)(O)C(C(=O)OCC)C1c1ccccc1` (centres undefined), the EC50 in assay [4] and in assay [5] was > 60 µM (not active) throughout.

As for `O=C(Nc1ccc(N2CCCC2)c(Cl)c1)c1ccc2c(c1)OCCO2`, the results for the EC50 in assay [4] and in assay [5] were 0.555 µM (active) and > 30 µM (not active), respectively.

As for `Fc1ccc(-c2cc(-c3ccccc3)nc(-n3cccn3)n2)cc1`, in assay [1], the EC50 was > 195 µM (not active).

`CCc1ccc(NC(=O)CNCc2ccc(OC)c(OC)c2)cc1`: the IC50 in assay [3] is 131 µM (active).

Take `Cc1ccc(/C=C(\NC(=O)c2ccccc2)C(=O)N2CCCC2C(=O)O)cc1` (centres undefined): the EC50 in assay [1] was > 195 µM (not active).

On to `COc1cc(/C=C/C(=O)OCC(=O)c2ccc[nH]2)ccc1O`, for which, in assay [3], the IC50 is 32.2 µM (active).

In the case of `CC(C)C1Cc2c(sc3[nH]c(=S)n(Cc4ccccc4)c(=O)c23)CO1` (centres undefined), the EC50 was 2.15 µM (active) in assay [6], > 150 µM (not active) in assay [7] and 33.4 µM (active) in assay [8].

With `CCn1c2ccccc2n2c(=O)c(=O)n(CC(=O)Nc3ccc(C(C)C)cc3)nc12`, in assay [1], the EC50 is > 195 µM (not active).
